Experimental findings from PubChem BioAssay (NCI) are described below.

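Where inhibition never reached the appropriate level, the endpoint shown equals the highest concentration tested. Otherwise, values were interpolated linearly from a five-concentration, 48-hour dose response in 96-well plates. At the GI50, growth is halved. At the TGI there is no net growth.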

Among the test systems are SN12C renal; UO-31 renal; SF-539 CNS; UACC-257 melanoma; EKVX NSCLC; KM12 colon; SNB-75 CNS; MDA-MB-231 breast; HOP-92 NSCLC; HOP-62 NSCLC.
Holding throughout (assay): growth of human tumour cells (NCI), 48 h

As to `NCC(Cc1ccccc1)P(=O)(O)O` (stereo not given), the TGI in the assay with SN12C renal, with UO-31 renal, in the assay with SF-539 CNS, in the assay on UACC-257 melanoma, in the assay on EKVX NSCLC and in the assay with KM12 colon was greater than 100 µM in each case. Further, the TGI in the assay on SNB-75 CNS, with MDA-MB-231 breast, in the assay with HOP-92 NSCLC and in the assay on HOP-62 NSCLC was greater than 100 µM each time.

As to `CCc1ccc(C2=NN(c3ccc(S(C)(=O)=O)cc3)C(=O)CC2)cc1`, the GI50 in the assay on SN12C renal was 7.34 µM; in the assay with UO-31 renal it was 4.89 µM; in the assay on SF-539 CNS, 2.3 µM; in the assay with UACC-257 melanoma it was 1.68 µM; with EKVX NSCLC it was 4.15 µM; with KM12 colon, 0.817 µM. Also, the GI50 in the assay on SNB-75 CNS was 1.31 µM; in the assay on MDA-MB-231 breast, 3.32 µM; in the assay with HOP-92 NSCLC, 1.86 µM; in the assay on HOP-62 NSCLC, 2.68 µM. Moreover, the TGI in the assay with SN12C renal is greater than 100 µM; in the assay with UO-31 renal it was greater than 100 µM; in the assay with SF-539 CNS, 11 µM; with UACC-257 melanoma, 55.3 µM; in the assay with EKVX NSCLC it was 98.4 µM; in the assay with KM12 colon it was greater than 96.1 µM. Further, the TGI is 6.93 µM in the assay with SNB-75 CNS, greater than 60.2 µM in the assay with MDA-MB-231 breast, 23.7 µM in the assay on HOP-92 NSCLC and greater than 30.8 µM in the assay with HOP-62 NSCLC.

Turning to `Cc1ccc(NC(=O)c2ccc(NC3=C(Cl)C(=O)N(Cc4ccccc4)C3=O)cc2)cc1Cl`, the GI50 is 3.87 µM in the assay with SN12C renal; 1.41 µM with UO-31 renal; 2.47 µM in the assay on SF-539 CNS; 13.3 µM with UACC-257 melanoma; 26.4 µM with EKVX NSCLC; 31 µM in the assay with KM12 colon. The GI50 in the assay on SNB-75 CNS was 23.9 µM; with MDA-MB-231 breast, 1.35 µM; in the assay on HOP-92 NSCLC it was 1.65 µM; in the assay with HOP-62 NSCLC, 12.2 µM. Moreover, the TGI with SN12C renal is 20.5 µM; with UO-31 renal, 2.71 µM; with SF-539 CNS it was 16.4 µM; with UACC-257 melanoma, 35.8 µM; in the assay with EKVX NSCLC it was greater than 100 µM; in the assay on KM12 colon it was greater than 100 µM. Moreover, the TGI in the assay on SNB-75 CNS was found to be 76.8 µM; in the assay with MDA-MB-231 breast, 11.9 µM; with HOP-92 NSCLC it was 11.6 µM; in the assay on HOP-62 NSCLC, 31.9 µM.

As to `Nc1n[nH]c2ccc([C@@H]3Nc4c(F)cc5[nH]ncc5c4[C@H]4C5CCC(C5)[C@@H]34)cc12` (stereo not given in full), the GI50 in the assay on SN12C renal is 0.544 µM; in the assay on UO-31 renal, 0.587 µM; in the assay with SF-539 CNS, 0.157 µM; in the assay with UACC-257 melanoma, 7.78 µM; with EKVX NSCLC, 0.632 µM; in the assay on KM12 colon, 0.287 µM. The GI50 is 0.0993 µM with SNB-75 CNS, 0.732 µM in the assay on MDA-MB-231 breast, 1.48 µM with HOP-92 NSCLC and 0.432 µM in the assay with HOP-62 NSCLC. Moreover, the TGI in the assay with SN12C renal is greater than 54.9 µM; with UO-31 renal, greater than 52.6 µM; in the assay with SF-539 CNS it was 0.598 µM; with UACC-257 melanoma it was greater than 79.3 µM; in the assay with EKVX NSCLC it was greater than 71.5 µM; in the assay with KM12 colon, 4.87 µM. The TGI in the assay on SNB-75 CNS was 7.25 µM; in the assay with MDA-MB-231 breast it was greater than 47 µM; with HOP-92 NSCLC, greater than 29.3 µM; in the assay with HOP-62 NSCLC it was 38.5 µM.

For the molecule `Cc1cc(-c2ccco2)cc(C)c1/C=C/c1cncc(-c2nn[nH]n2)c1`, the GI50 in the assay with SN12C renal, with UO-31 renal, with SF-539 CNS, in the assay on UACC-257 melanoma, with EKVX NSCLC and in the assay with KM12 colon was greater than 25 µM throughout. The GI50 in the assay on SNB-75 CNS, in the assay on MDA-MB-231 breast, in the assay with HOP-92 NSCLC and in the assay on HOP-62 NSCLC was greater than 25 µM throughout. The TGI with SN12C renal, in the assay with UO-31 renal, in the assay with SF-539 CNS, with UACC-257 melanoma, in the assay with EKVX NSCLC and with KM12 colon was greater than 25 µM throughout. Further, the TGI in the assay with SNB-75 CNS, in the assay on MDA-MB-231 breast, in the assay on HOP-92 NSCLC and with HOP-62 NSCLC was greater than 25 µM in each case.

As for `Cc1n(Cc2ccc3ccccc3n2)cc[n+]1Cc1ccc2ccccc2c1`, the GI50 in the assay on SN12C renal is 0.518 µM; in the assay with UO-31 renal it was 13.6 µM; in the assay with SF-539 CNS, 0.579 µM; with UACC-257 melanoma, 0.506 µM; with EKVX NSCLC, 2.17 µM; in the assay with KM12 colon, 0.488 µM. Besides, the GI50 in the assay with SNB-75 CNS is 0.322 µM; with MDA-MB-231 breast, 0.665 µM; in the assay on HOP-92 NSCLC it was 0.355 µM; in the assay with HOP-62 NSCLC, 1.79 µM. The TGI in the assay on SN12C renal turned out to be 11 µM; in the assay on UO-31 renal, 36.1 µM; with SF-539 CNS, 8.76 µM; with UACC-257 melanoma, 2.89 µM; in the assay on EKVX NSCLC, 21 µM; in the assay with KM12 colon it was 3.8 µM. Moreover, the TGI in the assay on SNB-75 CNS was determined as 3.39 µM; in the assay with MDA-MB-231 breast it was 4.08 µM; in the assay on HOP-92 NSCLC it was 3.06 µM; in the assay with HOP-62 NSCLC it was 7.36 µM.

Turning to `Cc1ccc(O)cc1Nc1ccnc2cc(-c3ccccn3)ccc12`, the GI50 in the assay with SN12C renal is 2.46 µM; in the assay with UO-31 renal, 0.246 µM; with SF-539 CNS it was 3.08 µM; with UACC-257 melanoma, 3.09 µM; with EKVX NSCLC, 3.61 µM; in the assay on KM12 colon, 3.01 µM. For the same molecule, the GI50 with SNB-75 CNS was 0.405 µM; in the assay with MDA-MB-231 breast it was 1.25 µM; in the assay with HOP-92 NSCLC, 0.292 µM; with HOP-62 NSCLC, 3.48 µM. The TGI in the assay with SN12C renal amounted to 7.51 µM; in the assay on UO-31 renal, 3.77 µM; with SF-539 CNS, 6.68 µM; in the assay with UACC-257 melanoma, 6.25 µM; with EKVX NSCLC, 17.3 µM; in the assay on KM12 colon it was 6.57 µM. Further, the TGI in the assay with SNB-75 CNS amounted to 3.43 µM; in the assay on MDA-MB-231 breast, 5.6 µM; in the assay with HOP-92 NSCLC it was 3.02 µM; with HOP-62 NSCLC it was 8.59 µM.
